Measurements: article PMC8780658 (Pharmaceutics, 2021)
Where a SMILES comes first, the peptide text is derived from it. The star is where a group is joined. Doxorubicin(3'-N) = COc1cccc2c1C(=O)c1c(O)c3c(c(O)c1C2=O)C[C@@](O)(C(=O)CO)C[C@@H]3O[C@H]1C[C@H](N*)[C@H](O)[C@H](C)O1; Propanoyl(3-maleimido) = O=C1C=CC(=O)N1CCC(=O)*; PEG2 = NCCOCCOCCC(=O)O

Columns and labels:
[1] = Pharmacokinetics after intravenous injection; assay type: in vivo; settings: BALB/c nude mice, i.v.
Method: Mice were bred under pathogen-free conditions at the Korea Institute of Science and Technology (KIST). All experiments with live animals were performed in compliance with the relevant laws and institutional guidelines of Institutional Animal Care and Use Committee (IACUC) in Korea Institute of Science and Technology (KIST), and IACUC approved the experiment (approved number of 2020-123). […] Then, each drug in the blood samples was extracted with DMSO by intense vortex and the samples were centrifuged at 2000 rpm for 40 min to obtain as a blood plasma. Finally, amount of free DOX and Al-ProD in samples was analyzed by IVIS Lumina Series III system (PerkinElmer; Waltham, MA, USA).

[2] = In vivo toxicity evaluation in MDA-MB231 tumor-bearing mice
Method: (§1) Antitumor efficacy was assessed by measuring tumor volumes once every two days, calculated as largest diameter × smallest diameter^2 × 0.53, once every 2 days. The body weights of mice were also measured once every two days to assess in vivo toxicity. The in vivo toxicity of Al-ProD was further assessed by histological analyses. At 20 days after treatment, major organs were collected from mice and samples were stained with H&E following the manufacturer’s protocol. Then, organ sections were observed using an optical microscope.

MDA-MB231 tumor [3] = assay: Biodistribution in breast tumor models (NIRF imaging)
Method: The biodistribution of Al-ProD was assessed in breast tumor models, which were prepared by subcutaneous inoculation of 1 × 10^7 MBA-MB231 cells into the left flank of BALB/c nude mice. […] Then, noninvasive near-infrared fluorescence (NIRF) imaging was performed using an IVIS Lumina Series III system after 0 h, 3 h, 6 h, 12 h, 24 h, 48 h, and 72 h of injection. Fluorescence intensities in tumor regions were quantified via Living Image software. Mice were sacrificed after 12 h of injection for ex vivo imaging, followed by the collection of lung, liver, kidney, spleen, heart, and tumor tissues. Tumor tissues were also cut into 10 µm thick sections for histological assays. Slide-mounted tumor sections were analyzed by Leica TCS SP8 confocal laser-scanning microscope.

[4] = target: T1, mouse serum albumin (MSA) (Mus musculus, UniProt P07724); assay: Albumin binding of Al-ProD, SDS-PAGE band shift; settings: 100 µM compound, 700 µM albumin in PBS pH 7.4, room temperature, 1 h; native 12% SDS-PAGE, trans-UV; unbound band below 7 kDa
T1 construct: purchased Sigma Aldrich
T1 sequence (P07724 25-608): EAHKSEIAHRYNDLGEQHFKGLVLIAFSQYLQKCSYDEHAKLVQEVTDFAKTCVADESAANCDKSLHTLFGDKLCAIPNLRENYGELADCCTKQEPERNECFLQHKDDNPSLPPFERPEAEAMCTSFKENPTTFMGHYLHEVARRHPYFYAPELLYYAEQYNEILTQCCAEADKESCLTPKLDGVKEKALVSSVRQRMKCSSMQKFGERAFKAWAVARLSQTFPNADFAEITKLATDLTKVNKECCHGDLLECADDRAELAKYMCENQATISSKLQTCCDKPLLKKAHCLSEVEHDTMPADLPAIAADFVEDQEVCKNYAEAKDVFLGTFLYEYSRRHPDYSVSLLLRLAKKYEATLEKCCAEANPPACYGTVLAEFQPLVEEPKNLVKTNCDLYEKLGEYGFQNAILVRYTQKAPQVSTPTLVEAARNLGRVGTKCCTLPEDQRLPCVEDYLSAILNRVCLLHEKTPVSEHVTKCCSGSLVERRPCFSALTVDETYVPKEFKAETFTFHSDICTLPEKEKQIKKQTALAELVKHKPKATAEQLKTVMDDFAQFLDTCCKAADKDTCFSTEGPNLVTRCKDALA
Method: (§2) The albumin-binding property of Al-ProD was firstly evaluated. Briefly, to a human serum albumin (HSA), mouse serum albumin (MSA), or bovine serum albumin (BSA; 700 µM in PBS; pH 7.4), Al-ProD (100 µM) was added and incubated for 0, 5, and 60 min at room temperature. As a control, the HSA solution was pre-incubated with γ-maleimidobutyric acid for 1 h before adding Al-ProD. After incubation, samples were analyzed via native 12% SDS-PAGE gel. The gels were observed by trans-UV using the iBright^TM Imaging System (Invitrogen by Thermo Fisher Scientiric), and then stained with coomassie blue for visualizing proteins. The albumin-binding property of Al-ProD was further analyzed using reverse-phased high performance liquid chromatography (RP-HPLC; […]; Agilent Technologies) with ACN/H2O gradient from 80:20 to 20:80 for 30 min under a fluorescence detector (Ex/Em: 530/590 nm). […] Next, cathepsin B-specific cleavage of Al-ProD that was pre-incubated with HSA for 5 min (HSA-bound Al-ProD; 10 µM) was assessed by incubating with cathepsin B, cathepsin E, cathepsin D, cathepsin L, caspase-9, or caspase-3 (50 µg) at 37 °C for 24 h, followed by an analysis using HPLC with ACN/H2O gradient from 20:80 to 80:20 for 30 min.

[5] = target: T2, bovine serum albumin (BSA) (Bos taurus, UniProt P02769); assay: Albumin binding of Al-ProD, SDS-PAGE band shift; settings: 100 µM compound, 700 µM albumin in PBS pH 7.4, room temperature, 1 h; native 12% SDS-PAGE, trans-UV; unbound band below 7 kDa
T2 construct: purchased Sigma Aldrich
T2 sequence (P02769 25-607): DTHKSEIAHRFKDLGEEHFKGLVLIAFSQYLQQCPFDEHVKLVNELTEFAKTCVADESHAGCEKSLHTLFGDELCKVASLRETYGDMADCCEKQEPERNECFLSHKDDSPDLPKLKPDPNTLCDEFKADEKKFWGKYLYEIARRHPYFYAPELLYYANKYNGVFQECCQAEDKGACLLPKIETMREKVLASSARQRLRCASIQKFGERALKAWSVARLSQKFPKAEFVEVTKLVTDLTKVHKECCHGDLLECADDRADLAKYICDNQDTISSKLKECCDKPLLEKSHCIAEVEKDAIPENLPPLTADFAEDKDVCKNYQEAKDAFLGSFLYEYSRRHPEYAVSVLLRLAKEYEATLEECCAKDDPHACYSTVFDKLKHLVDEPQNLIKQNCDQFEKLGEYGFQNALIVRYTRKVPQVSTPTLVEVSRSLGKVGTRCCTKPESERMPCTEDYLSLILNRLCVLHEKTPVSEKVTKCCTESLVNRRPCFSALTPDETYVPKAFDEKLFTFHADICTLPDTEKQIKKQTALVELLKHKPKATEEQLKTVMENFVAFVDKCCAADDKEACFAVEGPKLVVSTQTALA
Method: as §2

MDA-MB231 tumor [6] = assay: Antitumor efficacy in MDA-MB231 tumor-bearing mice; assay type: in vivo, BALB/c nude mice; settings: 3 mg/kg based on DOX contents, once every three days; saline group 1810.98 ± 544.56 mm^3
Method: as §1

MDA-MB231 cells = assay: Cellular uptake, confocal fluorescence imaging; assay type: cell-based, human; settings: 2 µM, 48 h, 37 °C, CLSM
Method: (§3) To assess intracellular behavior of Al-ProD via fluorescence imaging, 3 × 10^5 MDA-MB231 and H9C2 cells were seeded in confocal dishes. […] As a control, MDA-MB231 cells were pre-incubated for 2 h with cathepsin B-inhibitory siRNA that was pre-incubated with Lipofectamine 2000 for 40 min at room temperature. Then, cells were washed twice with DPBS, fixed with 5% paraformaldehyde for 15 min, and stained with 4′,6-diamidino-2-phenylindole (DAPI) for 10 min. Fluorescence imaging was performed using a Leica TCS SP8 confocal laser-scanning microscope (Leica Microsystems GmbH; Wetzlar, Germany). The DOX fluorescence in images was quantitatively analyzed using an Image Pro software (Media Cybernetic, Rockville, MD, USA).

H9C2 cells = assay: Cellular uptake, confocal fluorescence imaging; assay type: cell-based, rat; settings: 2 µM, 48 h, 37 °C, CLSM
Method: as §3

[7] = 3 mg/kg based on DOX contents, once every three days
[8] = 12 h after i.v. injection, 3 mg/kg based on DOX contents

Compound	AUC increase compared with free DOX ([1]; 3 mg/kg based on DOX contents)	Time for which a detectable amount remained in the body ([1]; 3 mg/kg based on DOX contents)	Body weights during treatment [2, 7]	Mice survival during treatment [2, 7]	Normal organs stained with H&E ([2]; day 20 after treatment)	DOX fluorescence from tumor tissues relative to free DOX, NIRF imaging (MDA-MB231 tumor [3]; [8])	DOX fluorescence in tumor tissues relative to free DOX group, ex vivo imaging (MDA-MB231 tumor [3]; [8])	DOX fluorescence in whole tumor tissue sections (histology) (MDA-MB231 tumor [3]; 12 h after i.v. injection, 3 mg/kg based on DOX contents, confocal microscopy)	Time for which DOX fluorescence was retained in tumor tissues (MDA-MB231 tumor [3]; NIRF imaging, i.v., 3 mg/kg based on DOX contents)	Band in SDS-PAGE gel after incubation with MSA (albumin binding) [4]	Band in SDS-PAGE gel after incubation with BSA (albumin binding) [5]	In vivo half-life, T1/2 ([1]; 3 mg/kg based on DOX contents, plasma fluorescence by IVIS)	In vivo half-life ([1]; 3 mg/kg, plasma fluorescence by IVIS)	Tumor volume on day 20 after treatment (MDA-MB231 tumor [6])	Median survival ([2]; 3 mg/kg once every three days, saline group 20 days)	Normal organs stained with H&E ([2]; mouse, in vivo)	Course of DOX fluorescence in tumor tissues (MDA-MB231 tumor [3]; mouse, in vivo, iv, 3 mg/kg)	DOX fluorescence in whole tumor tissue sections (histology) (MDA-MB231 tumor [3]; mouse, in vivo, iv, 3 mg/kg)	Intracellular location of DOX fluorescence in MDA-MB231 cells (MDA-MB231 cells)	Intracellular location of DOX fluorescence in H9C2 cells (H9C2 cells)
COc1cccc2c1C(=O)c1c(O)c3c(c(O)c1C2=O)C[C@@](O)(C(=O)CO)C[C@@H]3O[C@H]1C[C@H](NC(=O)CNC(=O)[C@H](CCCNC(=N)N)NC(=O)[C@H](CCCNC(=N)N)NC(=O)[C@H](Cc2ccccc2)NC(=O)CCOCCOCCNC(=O)CCN2C(=O)C=CC2=O)[C@H](O)[C@H](C)O1 [Al-ProD, maleimide-PEG2-FRRG-DOX] ({Propanoyl(3-maleimido)-PEG2}-FRRG-{Doxorubicin(3'-N)})	approximately sevenfold	144 h	no significant body weight loss	over 25 days	negligible toxicity	3.33–4.08 fold	3.41–4.92 fold	strong DOX fluorescence	72 h											
COc1cccc2c1C(=O)c1c(O)c3c(c(O)c1C2=O)C[C@@](O)(C(=O)CO)C[C@@H]3O[C@H]1C[C@H](N)[C@H](O)[C@H](C)O1 [free DOX, doxorubicin]				≤ 18 days						not bound	not bound	15 min	15 min	580.25 ± 139.92 mm^3	16 days	structural abnormalities	rapidly decreased for 6 h	only a small quantity	clearly observed at the nuclei	clearly observed at the nuclei
